Experimental data taken from PMC6384650, “Phenolic Compounds of Catalpa speciosa, Taxus cuspidata, and Magnolia acuminata have Antioxidant and Anticancer Activity” (Molecules, 2019).
Converted amounts (≈) assume the structure as drawn. Structures can show the parent of a compound that is named as a salt.

Tests used:
[1] = β-carotene-linoleic acid assay; details: absorbance 470 nm
Procedure: (§1) The DPPH and β-carotene-linoleic acid assays were used in the Faculty of Food and Agricultural Sciences, King Saud University to determine the antioxidant activities of bark extract. For the DPPH assay, the samples were incubated for 30 min and the absorbance of the samples at 517 nm was measured. In the β-carotene-linoleic acid assay, the absorbance of the samples at 470 nm was measured. […] A standard antioxidant (butylated hydroxytoluene, BHT) was used as a positive control and the inhibition by the concentration of each sample was compared with that of the BHT and blank. The antioxidant activities were repeated twice in duplicates.

[2] = DPPH free radical scavenging assay; details: 30 min incubation, absorbance 517 nm
Procedure: as §1

[3] = tested on: HeLa cells (cervical adenocarcinoma); experiment: MTT antiproliferative assay, HeLa; format: cell-based; details: 2 days incubation; for IC50: Homo sapiens, HeLa, 48 h, read-out: In vitro antiproliferative activity IC50, HeLa
Procedure: (§2) Fresh bark (0.25 g) was dried at 35 °C until a constant weight was obtained. The samples were ground and then dissolved in 3 mL methanol (99%) for 1 h in the dark at 25 °C. Bark solutions were centrifuged for 5 min at 10,000 rpm (7000 × g) and the supernatant was obtained (~2.7 mL). The samples were passed through a 0.45 μm polytetrafluroethylene (PTFE) nylon filter and then stored at −80 °C. Analytical grade chemicals (Sigma Aldrich, Germany) were used in the bioassays. The cancer cell lines, including cervical adenocarcinoma (HeLa), breast adenocarcinoma (MCF-7), T-cell lymphoblast like (Jurkat), urinary bladder carcinoma (T24), and colon adenocarcinoma (HT-29), were obtained from the American Type Culture Collection (ATCC).
(§3) The antiproliferative activity of bark extracts was examined in different cancer cells lines (HeLa, MCF-7, Jurkat, HT-29, and T24) and in normal cells (HEK-293) by using a modified 3-(4,5-dimethylthiazol-2-yl)-2,5-diphenyltetrazolium bromide (MTT) method. The cells were grown in 75 cm^2 flasks in MEM supplemented with 10% FBS, 17.8 mM NaHCO3, 0.1 mM non-essential amino acids, and 1 mM sodium pyruvate. They were seeded into 96-well plates at a density of 4 × 10^−4 per well, left to stand in 270 µL of medium, and incubated in an atmosphere of 37 °C and 5% CO2. Sterilin-filtered leaf extracts were added to the culture media in microtiter plates. Five doses of bark extracts were used at final concentrations of 50, 100, 200, 300, and 400 µg/mL in culture medium. Untreated cells were considered used as negative controls and vinblastine sulfate and taxol treatment were used as the positive controls. After incubation of the culture medium for 2 days at 37 °C and 5% CO2, phosphate buffer saline (PBS) washes were performed to remove extract traces and the medium supplied was 12 mM MTT dissolved in PBS. Subsequently, 0.04 N HCl dissolved in isopropanol was mixed in each well, left to stand for 40 min, and the absorbance at 570 nm was determined by using a microplate reader (Thermo Fisher Scientific, Waltham, Massachusetts, USA). The percentage inhibition of antiproliferation activity was calculated in triplicate:
(§4) % Inhibition = (Abs.570 nm control—Abs.570 nm sample)/Abs.570 nm control × 100. Subsequently, IC50 values were obtained by plotting the percentage of cell viability against the extract concentration and expressed in µg/mL.

cancer cells = experiment: Apoptotic cell population by flow cytometry (Annexin V); format: cell-based; details: treatment at IC50, 24/48 h, versus untreated control
Procedure: Flow cytometry (FAC Scan, Becton Dickinson, Iowa, USA) was used to measure the apoptotic cell population. […] The cells were detached by using trypsin (0.25%) in Hank’s balanced salt solution (Thermo Fisher Scientific, Berlin, Germany). For staining the cells, the Annexin V apoptosis detection kit (Sigma, St. Louis, MO, USA) was used. Briefly, the cells were incubated in the dark at 37 °C for 15 min and washed with cold PBS, and the apoptotic populations were shown by the flow cytometer in quadrants: Lower left (viable cells), upper left (necrotic cells), lower right (early apoptotic cells), and upper right (late apoptotic cells).

[4] = tested on: HT-29 cells (colon adenocarcinoma); experiment: MTT antiproliferative assay, HT-29; format: cell-based; details: 2 days incubation; for IC50: Homo sapiens, HT-29, 48 h, read-out: In vitro antiproliferative activity IC50, HT-29
Procedure: as §2, §3, §4

[5] = tested on: MCF-7 cells (breast adenocarcinoma); experiment: MTT antiproliferative assay, MCF-7; format: cell-based; details: 2 days incubation; for IC50: Homo sapiens, MCF7, 48 h, read-out: In vitro antiproliferative activity IC50, MCF-7
Procedure: as §2, §3, §4

[6] = tested on: T24 cells (urinary bladder carcinoma); experiment: MTT antiproliferative assay, T24; format: cell-based; details: 2 days incubation; for IC50: Homo sapiens, T-24, 48 h, read-out: In vitro antiproliferative activity IC50, T24
Procedure: as §2, §3, §4

[7] = tested on: Jurkat cells (T-cell lymphoblast like); experiment: MTT antiproliferative assay, Jurkat; format: cell-based; details: 2 days incubation; for IC50: Homo sapiens, Jurkat, 48 h, read-out: In vitro antiproliferative activity IC50, Jurkat
Procedure: as §2, §3, §4

[8] = tested on: MCF-7, HeLa, Jurkat, T24, and HT-29 cells; experiment: MTT antiproliferative assay, cancer cell line panel; format: cell-based; details: most cancer cells
Procedure: The samples were ground and then dissolved in 3 mL methanol (99%) for 1 h in the dark at 25 °C. Bark solutions were centrifuged for 5 min at 10,000 rpm (7000 × g) and the supernatant was obtained (~2.7 mL). The samples were passed through a 0.45 μm polytetrafluroethylene (PTFE) nylon filter and then stored at −80 °C. Analytical grade chemicals (Sigma Aldrich, Germany) were used in the bioassays. The cancer cell lines, including cervical adenocarcinoma (HeLa), breast adenocarcinoma (MCF-7), T-cell lymphoblast like (Jurkat), urinary bladder carcinoma (T24), and colon adenocarcinoma (HT-29), were obtained from the American Type Culture Collection (ATCC). […] The cells were grown in 75 cm^2 flasks in MEM supplemented with 10% FBS, 17.8 mM NaHCO3, 0.1 mM non-essential amino acids, and 1 mM sodium pyruvate. […] Sterilin-filtered leaf extracts were added to the culture media in microtiter plates. […] Untreated cells were considered used as negative controls and vinblastine sulfate and taxol treatment were used as the positive controls. After incubation of the culture medium for 2 days at 37 °C and 5% CO2, phosphate buffer saline (PBS) washes were performed to remove extract traces and the medium supplied was 12 mM MTT dissolved in PBS. Subsequently, 0.04 N HCl dissolved in isopropanol was mixed in each well, left to stand for 40 min, and the absorbance at 570 nm was determined by using a microplate reader (Thermo Fisher Scientific, Waltham, Massachusetts, USA). The percentage inhibition of antiproliferation activity was calculated in triplicate: % Inhibition = (Abs.570 nm control—Abs.570 nm sample)/Abs.570 nm control × 100. Subsequently, IC50 values were obtained by plotting the percentage of cell viability against the extract concentration and expressed in µg/mL.

HEK-293 cells = experiment: MTT antiproliferative assay, normal HEK-293 cells; format: cell-based; details: 2 days incubation; for IC50: Homo sapiens, HEK293, 48 h, read-out: In vitro antiproliferative activity IC50, HEK-293
Procedure: as §3, §4

In vitro antiproliferative activity IC50, HeLa [3] [µg/mL] | In vitro antiproliferative activity IC50, HT-29 [4] [µg/mL] | In vitro antiproliferative activity IC50, MCF-7 [5] [µg/mL] | In vitro antiproliferative activity IC50, T24 [6] [µg/mL] | In vitro antiproliferative activity IC50, Jurkat [7] [µg/mL] | IC50 [3] [µg/mL] | IC50 [4] [µg/mL] | IC50 [5] [µg/mL] | IC50 [6] [µg/mL] | IC50 [7] [µg/mL] | Compound | Antiproliferative activity against cancer cells (in words) [8] | In vitro antiproliferative activity IC50, HEK-293 (HEK-293 cells) | IC50 (HEK-293 cells) [µg/mL] | further results
 |  |  |  |  |  |  |  |  |  | Cc1cc(C(C)(C)C)c(O)c(C(C)(C)C)c1 [BHT, butylated hydroxytoluene] |  |  |  | β-Carotene-Linoleic Acid Assay (IC50) [1]: 3.2 ± 0.1c µg mL^−1; DPPH Free Radical Scavenging Activity (IC50) [2]: 2.9 ± 0.1c µg mL^−1
36.48 ± 1.2 | 96.16 ± 1.5 | 17.64 ± 1.8 | 183.28 ± 4.3 | 38.16 ± 0.7 |  |  |  |  |  | O.Oc1cc(O)c2c(c1)O[C@H](c1ccc(O)c(O)c1)[C@@H](O)C2 [Catechin] | notable antiproliferative activity against most cancer cells | ˃400 µg/mL |  | Accumulation of necrotic, early and late apoptotic cells (cancer cells): high accumulation of early and late apoptotic cells
51.73 ± 3.5 | 126.26 ± 4.4 | 43.85 ± 1.3 | 227.26 ± 5.1 | 39.11 ± 2.3 |  |  |  |  |  | COc1cc(/C=C/C(=O)O)ccc1O [Ferulic acid] | notable antiproliferative activity against most cancer cells | ˃400 µg/mL |  | 
 |  |  |  |  |  |  | 0.09 ± 0.009 (≈ 0.105 µM) |  |  | CC(=O)O[C@H]1C(=O)[C@@]2(C)[C@H]([C@H](OC(=O)c3ccccc3)[C@]3(O)C[C@H](OC(=O)[C@H](O)[C@@H](NC(=O)c4ccccc4)c4ccccc4)C(C)=C1C3(C)C)[C@]1(OC(C)=O)CO[C@@H]1C[C@@H]2O [Taxol] |  |  |  | 
 |  |  |  |  | 2.7 ± 0.06 | 21 ± 0.1 |  | 65.7 ± 2.1 | 0.1 ± 0.09 | CC[C@]1(O)C[C@@H]2CN(CCc3c([nH]c4ccccc34)[C@@](C(=O)OC)(c3cc4c(cc3OC)N(C)[C@H]3[C@@](O)(C(=O)OC)[C@H](OC(C)=O)[C@]5(CC)C=CCN6CC[C@]43[C@@H]65)C2)C1 [Vinblastine sulfate] |  |  | 50.1 ± 2.3 | 
 |  |  |  |  | 8.5 ± 0.1 (≈ 10.3 µM) | 47.3 ± 0.2 (≈ 57.3 µM) | 4.63 ± 1.8 (≈ 5.61 µM) | 89.8 ± 2.5 (≈ 109 µM) | 0.4 ± 0.05 (≈ 0.485 µM) | CC[C@]1(O)C[C@H]2CN(CCc3c([nH]c4ccccc34)[C@@](C(=O)OC)(c3cc4c(cc3OC)N(C=O)[C@H]3[C@@](O)(C(=O)OC)[C@H](OC(C)=O)[C@]5(CC)C=CCN6CC[C@]43[C@@H]65)C2)C1 [Vincristine] |  |  | 78.3 ± 1.6 (≈ 94.9 µM) | 
65.31 ± 2.4 | 113.15 ± 2.9 | 58.11 ± 0.9 | 176.12 ± 3.6 | 63.09 ± 1.4 |  |  |  |  |  | Hydroxycaffeic acid | notable antiproliferative activity against most cancer cells | ˃400 µg/mL |  | 

Compound | In vitro antiproliferative activity IC50, HeLa [3] [µg/mL] | In vitro antiproliferative activity IC50, HT-29 [4] [µg/mL] | In vitro antiproliferative activity IC50, MCF-7 [5] [µg/mL] | In vitro antiproliferative activity IC50, T24 [6] [µg/mL] | In vitro antiproliferative activity IC50, Jurkat [7] [µg/mL] | IC50 [3] [µg/mL] | IC50 [4] [µg/mL] | IC50 [5] [µg/mL] | IC50 [6] [µg/mL] | IC50 [7] [µg/mL] | Antiproliferative activity against cancer cells (in words) [8] | In vitro antiproliferative activity IC50, HEK-293 (HEK-293 cells) | IC50 (HEK-293 cells) [µg/mL] | further results
O=C(O)c1ccc(O)c(O)c1 [Protocatechuic acid, 3,4-dihydroxybenzoic acid] |  |  |  |  |  | 39.1 ± 2.3 (≈ 254 µM) | 95.3 ± 3.3 (≈ 619 µM) | 19 ± 2.1 (≈ 123 µM) | 176 ± 2.1 (≈ 1140 µM) | 47.4 ± 2.1 (≈ 307 µM) | notable antiproliferative activity against most cancer cells |  | > 400 | 
